Values of other authors as cited in patent US20160310431A1, “Three-Phase System for Modified Release of a Non-Steroidal Antiinflammatory” (priority 2013, published 2016).
Where two headings read alike, the source gives them in different places.

Legend:
[1] = intramuscular administration
[2] = not given; remark: listed apart in the source
COX-1 and COX-2 = details: COX-1 vs COX-2
[3] = intramuscular administration, single dose of 30 mg

| SMILES | maximum plasma concentration [3] | time at which maximum plasma concentration appears [3] | time at which maximum plasma concentration appears (intravenous administration) | time at which maximum plasma concentration appears (oral administration, tablets or capsules) | absorption (orally and parenterally) | appearance of analgesic effect [1] | duration of analgesic effect [1] | peak of analgesic effect [1] | metabolized via the liver by conjugation ([2]; inactive metabolites) | excreted as a conjugated metabolite ([2]; renal excretion) | excreted as the drug without changes ([2]; renal excretion) | excreted hydroxylated ([2]; renal excretion) | selectivity for COX isoforms (COX-1 and COX-2) | binding to plasma proteins (plasma proteins) |
| --- | --- | --- | --- | --- | --- | --- | --- | --- | --- | --- | --- | --- | --- | --- |
| O=C(c1ccccc1)c1ccc2n1CCC2C(=O)O (centres unmarked) [Ketorolac tromethamine] | 2.2 µg/mL | 50 min | 5.4 min | 180 min | rapidly and completely absorbed | first half hour | 4 to 6 h | 1 to 2 h |  |  |  |  |  |  |
| O=C(c1ccccc1)c1ccc2n1CCC2C(=O)O (centres unmarked) [Ketorolac] |  |  |  |  |  |  |  |  | 21% | 21.9% | 60.2% | 11.5% | not being selective for any of the isoforms | 99% |
